Remaining activity data for three molecules are collected here from publication PMC10578352, “Identification of a Protein Arginine Methyltransferase 7 (PRMT7)/Protein Arginine Methyltransferase 9 (PRMT9) Inhibitor” (Journal of Medicinal Chemistry, 2023).

The target in this test is T1, GST-HsPRMT7 (Homo sapiens, UniProt Q9NVM4).
T1 construct: made in house; host or cells: E. coli
T1 sequence (Q9NVM4 1-692): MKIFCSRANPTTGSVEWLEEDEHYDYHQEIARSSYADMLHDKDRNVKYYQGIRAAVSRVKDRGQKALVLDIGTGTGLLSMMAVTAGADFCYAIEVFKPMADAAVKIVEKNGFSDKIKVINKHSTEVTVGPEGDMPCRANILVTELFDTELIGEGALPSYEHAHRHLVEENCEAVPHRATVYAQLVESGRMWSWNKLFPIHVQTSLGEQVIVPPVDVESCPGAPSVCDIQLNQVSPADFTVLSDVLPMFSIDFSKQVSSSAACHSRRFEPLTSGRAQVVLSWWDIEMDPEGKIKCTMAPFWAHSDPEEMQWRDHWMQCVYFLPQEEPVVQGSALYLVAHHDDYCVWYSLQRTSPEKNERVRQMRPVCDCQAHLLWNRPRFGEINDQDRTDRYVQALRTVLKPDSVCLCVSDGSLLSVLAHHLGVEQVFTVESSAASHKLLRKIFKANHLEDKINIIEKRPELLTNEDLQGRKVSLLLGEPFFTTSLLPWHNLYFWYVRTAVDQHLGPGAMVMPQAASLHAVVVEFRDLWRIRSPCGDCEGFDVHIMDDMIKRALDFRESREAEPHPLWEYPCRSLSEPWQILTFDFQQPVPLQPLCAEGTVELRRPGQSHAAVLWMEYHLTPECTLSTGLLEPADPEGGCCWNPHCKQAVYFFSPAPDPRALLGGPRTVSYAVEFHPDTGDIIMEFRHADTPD
In words: Radioisotope-based assay (SDS-PAGE, fluorography, densitometry), HsPRMT7. The test is classed as biochemical. Conditions: substrate HsH2B, 15 °C, read-out: % HsPRMT7 residual activity. The protocol: Based on these outcomes, we resolved to explore the effect on the capability to inhibit PRMT9 enzymatic activity of further reduction of the distance between the pharmacophoric moieties. […] After the experiment was repeated with 100, 250, and 500 μM concentrations of each inhibitor, half inhibition was observed only at a concentration of roughly 250 μM (Figure 4d).
[…]. The experiments were performed as reported in the Experimental procedures section. GST-HsPRMT9 (a) and GST-HsPRMT7 (b) were incubated with human GST-SF3B2 (401–550) peptide or recombinant HsH2B, respectively (1 μg of enzyme, 5 μg of substrate), 0.14 μM [^3H]SAM, and the indicated concentrations of tested compounds at the corresponding optimal reaction temperature (37 °C for HsPRMT9, 15 °C for HsPRMT7). C. elegans GST-tagged enzymes PRMT9 (c) and PRMT7 (d) were incubated with GST-CeSFTB-2 (99–248) fragment or recombinant HsH2B, respectively (1 μg of enzyme, 5 μg of substrate), 0.14 μM [^3H]SAM, and the indicated concentrations of tested compounds at the corresponding optimal reaction temperature (25 °C for CePRMT9, 15 °C for CePRMT7). After SDS-PAGE, the gels were treated as previously described[48] and densitometry analysis was done using ImageJ software, and data was plotted as normalized activity to the no inhibitor controls.
Human PRMT9, C. elegans PRMT9, human PRMT7, and C. elegans PRMT7 plasmids were sequenced, expressed in E. coli as GST-fusion proteins, and purified as previously described.[48] Substrates were also sequenced and purified as described [human GST-SF3B2 (401–550);[13]C. elegans SFTB-2;[48] human histone H2B (New England Biolabs, M2505S)]. Xenopus laevis histone H2B was expressed in E. coli and purified similarly to what was previously reported by Luger et al.[72]
Reactions consisting of approximately 1 μg of enzyme (human or C. elegans GST-tagged enzymes PRMT9 and PRMT7), reacted with approximately 5 μg of substrate [for human PRMT9, human GST-SF3B2 401–550 fragment; C. elegans PRMT9 with C. elegans GST-SFTB-2 (99–248) fragment, or recombinant human histone H2B from New England Biolabs (M2505S)], were incubated for the indicated time in reaction buffer {50 mM potassium HEPES buffer, 10 mM NaCl, 1 mM dithiothreitol (DTT), pH 8.0 with 0.7 μM S-adenosyl-L-[methyl-^3H]methionine (^3H-AdoMet, PerkinElmer Life Sciences, 82.7 Ci/mmol, 0.55 mCi/mL in 10 mM H2SO4/EtOH [9:1 (v/v)])} in a final reaction volume of 60 μL. Each reaction was incubated at the corresponding optimal reaction temperature (37 °C for human PRMT9, 25 °C for C. elegans PRMT9, and 15 °C for C. elegans and human PRMT7 enzymes. MTA was dissolved in water, and a wavelength scan was taken to determine the final concentration using the extinction coefficient. The final concentrations used are indicated in the figure legends. […]. EML734, EML736, and EML709 were also dissolved in DMSO, and further dilutions were made in DMSO for the working stocks. For controls, no inhibitor reactions were created by the addition of the respective solvent (water for MTA and DMSO for EPZ015666 and EML inhibitors).
After the reaction incubations with the various concentrations of inhibitors, the reactions were quenched by adding 0.2 volume of 5× SDS sample loading buffer, and subsequently, the reactions were run on a 12.6% polyacrylamide Tris gel. To collect the radioactive signal, the gels were then treated in the same way as previously described.[48] […]

With `COC(=O)c1cc(O)c2cc(NC(=O)NCCCNC(=N)NC[C@H]3O[C@@H](n4cnc5c(N)ncnc54)[C@H](O)[C@@H]3O)ccc2c1` [1a], the remaining activity at 100 µM was determined as 0.5%.

For `COC(=O)c1cc(O)c2cc(NC(=O)NCCCCNC(=N)NC[C@H]3O[C@@H](n4cnc5c(N)ncnc54)[C@H](O)[C@@H]3O)ccc2c1` [1b], the remaining activity at 100 µM stood at 8.27%.

On to `COC(=O)c1cc(O)c2cc(NC(=O)NCCCCCNC(=N)NC[C@H]3O[C@@H](n4cnc5c(N)ncnc54)[C@H](O)[C@@H]3O)ccc2c1` [1c], for which the remaining activity at 100 µM was determined as 0.03%.
